# In PMC11551755, “Structure-based discovery of first inhibitors targeting the helicase activity of human PIF1” (Nucleic Acids Research, 2024):
# Target: T1, FLhPIF1 (Homo sapiens, UniProt Q9H611)
# T1 construct: Full length human PIF1 (FLhPIF1) was expressed and purified as a His-SUMO fusion; His-SUMO (cleaved yes); made in house; 'following similar protocols' to hPIF1HD (ArcticExpress BL21(DE3) E. coli)
# T1 sequence (Q9H611 1-641): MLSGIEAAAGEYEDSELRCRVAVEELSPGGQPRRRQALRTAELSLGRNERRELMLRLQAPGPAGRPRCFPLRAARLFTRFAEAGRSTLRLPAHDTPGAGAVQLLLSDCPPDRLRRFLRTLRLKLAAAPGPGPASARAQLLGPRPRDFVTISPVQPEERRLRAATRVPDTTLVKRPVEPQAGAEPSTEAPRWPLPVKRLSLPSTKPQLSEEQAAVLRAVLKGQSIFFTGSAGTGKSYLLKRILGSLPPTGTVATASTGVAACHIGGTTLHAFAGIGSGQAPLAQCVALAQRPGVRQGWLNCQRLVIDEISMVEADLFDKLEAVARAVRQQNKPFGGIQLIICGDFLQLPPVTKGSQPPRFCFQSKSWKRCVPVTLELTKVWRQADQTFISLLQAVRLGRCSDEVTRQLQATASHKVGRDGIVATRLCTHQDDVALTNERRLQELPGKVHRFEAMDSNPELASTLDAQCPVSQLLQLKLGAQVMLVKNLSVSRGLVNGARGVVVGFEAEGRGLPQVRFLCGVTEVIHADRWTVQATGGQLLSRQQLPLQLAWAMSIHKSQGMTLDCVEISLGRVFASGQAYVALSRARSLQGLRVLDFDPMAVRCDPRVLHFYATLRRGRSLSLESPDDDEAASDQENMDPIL
# Assay: DNA-dependent ATPase assay
# Format: biochemical
# Settings: 1 mM compound, 25 nM FLhPIF1, 250 nM d(T)55, 10 min at 37°C
# Experimental: ATP hydrolysis was measured under helicase reaction conditions with 25 nM FLhPIF1 and 250 nM oligo d(T)55 and 0.0125 μM [γ-^32P]ATP (6000 Ci/mmol). Released phosphate was quantified using the charcoal binding assay of Iggo and Lane ([45]) after 10 min at 37°C.
# Supplementary Figure 11. ATPase activity determined with and without inhibitors. ATPase assays, 25 nM FLhPIF1, 250 nM d(T)55 ssDNA, were performed for 10 minutes at 37 °C under helicase reaction conditions, with and without 1 mM compound (n = 3). Compound 2 was not included in the analysis due to lack of available material. […] The data are broadly in agreement with the results of ssDNA binding EMSA except compound 6 (see discussion).
compound,measurement,value
Nc1nc(-c2ccc(C(=O)c3ccccc3)cc2)cs1 [Compound 6],inhibition of DNA-dependent ATPase,effective inhibitor of DNA-dependent ATPase
